The series is described as follows: Analytical immobilized pH gradient (IPG) gels for determining pI values. Format: physicochemical. Conditions: analytical IPG gel, pH interval 8.0 to 9.0, mixture of 8M urea and 1% CHAPS. The source says:
Preparation of Analytical Immobilized pH Gradient (IPG) Gels, for Determining the pI Values of the Main Component and of the Impurities
Gel dimension: 25×10 cm, 0, 5 mm thick; pH interval: 7.0 to 10.0.
The IPG ranges are set in a 5% T, 4% C polyacrylamide matrix, according to the preparation recipe disclosed in Ref. 110. After preparing the two limiting, acidic and basic mixtures, they are titrated (with a weak acid and a weak base) to pH values close to neutrality. This is important in order to ensure uniform polymerization and efficient monomer conversion throughout the preformed pH gradient. Upon gel washing in distilled water (3×30 min), all added titrants (as well as catalysts and ungrafted monomers) are efficiently removed. The gels are then equilibrated for 30 min in 2% glycerol solution, dried in air and reswollen in a mixture of 8M urea and 3.5% CHAPS, overnight. The sample is applied in surface wells at the anodic gel side in concentrations from 80 to 600 μg/track. […]
For exactly determining the pI value of the amide derivative of factor B0 and factor B1, the above procedure is repeated under the same conditions, in the pH interval from 8.0 to 9.0 using a mixture of 8M urea and 1% CHAPS. The so determined pI value of the amide derivative of factor B0 is 8.56, whilst the pI value of the amide derivative of factor B1 is 8.40.

As for “6^B -decarboxy-6^B -(hydroxymethyl)-N^63 -3-(dimethyl-amino)propyl amide derivative of antibiotic A40926 factor B1 [amide derivative of factor B1]”, the pI value was found to be 8.40.

“6^B -decarboxy-6^B -(hydroxymethyl)-N^63 -3-(dimethyl-amino)propyl amide derivative of antibiotic A40926 factor B0 [amide derivative of factor B0]”: the pI value was 8.56.

The values are drawn from US5939523A, “Purification of dalbaheptide antibiotics by isoelectric focusing” (Gruppo Lepetit SpA, priority 1995, dated 1999).
